Values of other authors as cited in EP4635967A1, “OLIGONUCLEOTIDE COMPRISING LIPOPHILIC MONOMER AND USE THEREOF IN NON-LIVER DELIVERY” (Tuojie Biotech (Shanghai) Co., Ltd., priority 2022, dated 2024).

Settings: octanol-water partition coefficient, example values in the definition of lipophilic moiety

| logKow | SMILES |
| --- | --- |
| about 0.7 | NCCCCCCO [6-aminohexanol] |
| 10.7 | CC(C)CCC[C@@H](C)[C@H]1CC[C@H]2[C@@H]3CC=C4C[C@@H](OC(=O)NCCCCCCO)CC[C@]4(C)[C@H]3CC[C@]12C [cholesteryl N-(hexan-6-ol)carbamate] |
